Measured values taken from patent US4684649A, “Quinoxaline derivatives useful for treatment and prophylaxis of swine dysentery and as animal growth promotants” (priority 1985, dated 1987).
Converted amounts (≈) assume the structure as drawn.

Key:
[1] = system: Treponema hyodysenteriae; assay: in vitro antibacterial activity (MIC) against Treponema hyodysenteriae; format: cell-based; settings: Brachyspira hyodysenteriae, growth medium with about 5% bovine blood and about 3% tryptose agar
Description: MIC's against Treponema hyodysenteriae were determined by spreading appropriate dilutions of the microorganism on a growth medium containing about 5% bovine blood and about 3% tryptose agar.
Among the compounds of structure I subjected to in vitro screening were the following in which R and R1 have the above meaning.

[2] = system: Salmonella Typhimurium TA 1538; assay: Ames test, in the absence of microsomial extract, strain TA 1538; format: cell-based
Text: (§1) Mutation Test determined according to the "Ames test"
(§2) (B.N. Ames et al. Mutation Research 31, page 347, 1975).
(§3) The compound 2-[bis-(1'-hydroxy-3'-t-butyl-4'-methoxy-phenyl-2')-methyl-quinoxaline-1,4-dioxide prepared according to Example 1 was submitted to the Ames test showing the results summarized in the following two tables: […]

[3] = system: Salmonella Typhimurium TA 1535; assay: Ames test, in the absence of microsomial extract, strain TA 1535; format: cell-based
Text: as §1, §2, §3

[4] = system: Salmonella Typhimurium TA 98; assay: Ames test, in the absence of microsomial extract, strain TA 98; format: cell-based
Text: as §1, §2, §3

[5] = system: Salmonella Typhimurium TA 100; assay: Ames test, in the absence of microsomial extract, strain TA 100; format: cell-based
Text: as §1, §2, §3

[6] = system: Salmonella Typhimurium TA 1538; assay: Ames test, in the presence of microsomial extract, strain TA 1538; format: cell-based
Text: as §1, §2, §3

[7] = system: Salmonella Typhimurium TA 1535; assay: Ames test, in the presence of microsomial extract, strain TA 1535; format: cell-based
Text: as §1, §2, §3

[8] = system: Salmonella Typhimurium TA 98; assay: Ames test, in the presence of microsomial extract, strain TA 98; format: cell-based
Text: as §1, §2, §3

[9] = system: Salmonella Typhimurium TA 100; assay: Ames test, in the presence of microsomial extract, strain TA 100; format: cell-based
Text: as §1, §2, §3

[10] = system: Treponema hyodysenterae; assay: medicated feed in pigs exposed to Treponema hyodysenterae infections (swine dysentery); format: in vivo
Text: Compound of Example 1 was mixed with the swine balanced feed described on page 8 at the ratio of 200 grams/ton. A group of 30 pigs was fed with this medicated diet. An equivalent group of pigs was used as control. The two groups were stabled in pigsties where infections of Treponema hyodysenterae have been observed. No one of the animals under treatment was getting ill, while the 50% of the untreated animals in the control group was clearly showing typical symptoms of swine dysentery.

[11] = growth promotion and feed efficiency in pigs; format: in vivo; settings: 28 days, 200 grams/ton in diet
Text: The efficacy of compound of Example 1 in promoting growth and improving the feed efficiency is illustrated below. 20 healthy pigs of same age and of average same weight were divided into two groups. One group of 10 pigs served as control and was fed a basal non-supplemented diet, the other group of 10 pigs received the same basal diet, but supplemented with 200 grams/ton of compound of Example 1.

[12] = solubility
[13] = system: Salmonella Typhimurium; settings: Ames test; prior art compound; cited from earlier work

## COc1ccc(O)c(C(c2c(O)ccc(OC)c2C(C)(C)C)c2c[n+]([O-])c3ccccc3[n+]2[O-])c1C(C)(C)C [Example 1, 2-[bis(1'-hydroxy-3'-t-butyl-4'-methoxy-phenyl-2')-methyl]-quinoxaline-1,4-dioxide]
[1]
  MIC: 0.1 µg/mL (≈ 0.188 µM)
[2]; TA 1538, 10 mcg
  Number of mutating colonies/plate: 11 mutating colonies/plate
[2]; TA 1538, 30 mcg
  Number of mutating colonies/plate: 16 mutating colonies/plate
[2]; TA 1538, 100 mcg
  Number of mutating colonies/plate: 15 mutating colonies/plate
[2]; TA 1538, 300 mcg
  Number of mutating colonies/plate: 10 mutating colonies/plate
[2]; TA 1538, 600 mcg
  Number of mutating colonies/plate: 17 mutating colonies/plate
[2]; TA 1538, 1000 mcg
  Number of mutating colonies/plate: 17 mutating colonies/plate
[3]; TA 1535, 10 mcg
  Number of mutating colonies/plate: 15 mutating colonies/plate
[3]; TA 1535, 30 mcg
  Number of mutating colonies/plate: 12 mutating colonies/plate
[3]; TA 1535, 100 mcg
  Number of mutating colonies/plate: 9 mutating colonies/plate
[3]; TA 1535, 300 mcg
  Number of mutating colonies/plate: 13 mutating colonies/plate
[3]; TA 1535, 600 mcg
  Number of mutating colonies/plate: 25 mutating colonies/plate
[3]; TA 1535, 1000 mcg
  Number of mutating colonies/plate: 16 mutating colonies/plate
[4]; TA 98, 10 mcg
  Number of mutating colonies/plate: 25 mutating colonies/plate
[4]; TA 98, 30 mcg
  Number of mutating colonies/plate: 24 mutating colonies/plate
[4]; TA 98, 100 mcg
  Number of mutating colonies/plate: 27 mutating colonies/plate
[4]; TA 98, 300 mcg
  Number of mutating colonies/plate: 24 mutating colonies/plate
[4]; TA 98, 600 mcg
  Number of mutating colonies/plate: 27 mutating colonies/plate
[4]; TA 98, 1000 mcg
  Number of mutating colonies/plate: 27 mutating colonies/plate
[5]; TA 100, 10 mcg
  Number of mutating colonies/plate: 168 mutating colonies/plate
[5]; TA 100, 30 mcg
  Number of mutating colonies/plate: 165 mutating colonies/plate
[5]; TA 100, 100 mcg
  Number of mutating colonies/plate: 151 mutating colonies/plate
[5]; TA 100, 300 mcg
  Number of mutating colonies/plate: 162 mutating colonies/plate
[5]; TA 100, 600 mcg
  Number of mutating colonies/plate: 177 mutating colonies/plate
[5]; TA 100, 1000 mcg
  Number of mutating colonies/plate: 142 mutating colonies/plate
[6]; TA 1538, 10 mcg
  Number of mutating colonies/plate: 16 mutating colonies/plate
[6]; TA 1538, 30 mcg
  Number of mutating colonies/plate: 14 mutating colonies/plate
[6]; TA 1538, 100 mcg
  Number of mutating colonies/plate: 15 mutating colonies/plate
[6]; TA 1538, 300 mcg
  Number of mutating colonies/plate: 8 mutating colonies/plate
[6]; TA 1538, 600 mcg
  Number of mutating colonies/plate: 18 mutating colonies/plate
[6]; TA 1538, 1000 mcg
  Number of mutating colonies/plate: 14 mutating colonies/plate
[7]; TA 1535, 10 mcg
  Number of mutating colonies/plate: 23 mutating colonies/plate
[7]; TA 1535, 30 mcg
  Number of mutating colonies/plate: 26 mutating colonies/plate
[7]; TA 1535, 100 mcg
  Number of mutating colonies/plate: 22 mutating colonies/plate
[7]; TA 1535, 300 mcg
  Number of mutating colonies/plate: 16 mutating colonies/plate
[7]; TA 1535, 600 mcg
  Number of mutating colonies/plate: 22 mutating colonies/plate
[7]; TA 1535, 1000 mcg
  Number of mutating colonies/plate: 20 mutating colonies/plate
[8]; TA 98, 10 mcg
  Number of mutating colonies/plate: 30 mutating colonies/plate
[8]; TA 98, 30 mcg
  Number of mutating colonies/plate: 27 mutating colonies/plate
[8]; TA 98, 100 mcg
  Number of mutating colonies/plate: 24 mutating colonies/plate
[8]; TA 98, 300 mcg
  Number of mutating colonies/plate: 20 mutating colonies/plate
[8]; TA 98, 600 mcg
  Number of mutating colonies/plate: 24 mutating colonies/plate
[8]; TA 98, 1000 mcg
  Number of mutating colonies/plate: 28 mutating colonies/plate
[9]; TA 100, 10 mcg
  Number of mutating colonies/plate: 158 mutating colonies/plate
[9]; TA 100, 30 mcg
  Number of mutating colonies/plate: 143 mutating colonies/plate
[9]; TA 100, 100 mcg
  Number of mutating colonies/plate: 135 mutating colonies/plate
[9]; TA 100, 300 mcg
  Number of mutating colonies/plate: 174 mutating colonies/plate
[9]; TA 100, 600 mcg
  Number of mutating colonies/plate: 175 mutating colonies/plate
[9]; TA 100, 1000 mcg
  Number of mutating colonies/plate: 125 mutating colonies/plate
[10]; 200 grams/ton of feed, 30 pigs, control group 50% ill
  animals under treatment getting ill: No one
[10]; after 2 weeks of treatment with medicated feed, 200 grams/ton
  recovery of the infected animals: recovered completely
[11]
  increase in feed efficiency over the controls: 5,5%
[11]; versus control ration
  body weight increase over control (heavier on average): 4,6%
[12]; in acetone
  solubility: slightly soluble
[12]; in benzene
  solubility: slightly soluble
[12]; in dimethylformamide
  solubility: soluble
[12]; in dioxane
  solubility: soluble
[12]; in methanol
  solubility: slightly soluble
[12]; in tetrahydrofuran
  solubility: soluble
[12]; in water
  solubility: very scarcely soluble

## COc1ccc(O)c(C(c2c(O)ccc(OC)c2C(C)C)c2c[n+]([O-])c3ccccc3[n+]2[O-])c1C(C)C [Example 2, 2-[bis(1'-hydroxy-3'-i-propyl-4'-methoxy-phenyl-2')-methyl]-quinoxaline-1,4-dioxide]
[1]
  MIC: 0.9 µg/mL (≈ 1.78 µM)

## COC(=O)NN=Cc1c[n+]([O-])c2ccccc2[n+]1[O-] [carbadox, 2-formyl-quinoxaline-1,4-dioxide carbomethoxyhydrazone]
[13]
  mutagenic effect: substantial mutagenic effect

## [N-]=[N+]=[N-] [sodium azide, reference compound]
[3]; TA 1535, 10 mcg
  Number of mutating colonies/plate: 1006 mutating colonies/plate
[6]; TA 1538, 10 mcg
  Number of mutating colonies/plate: 2258 mutating colonies/plate
[8]; TA 98, 10 mcg
  Number of mutating colonies/plate: 1803 mutating colonies/plate
